Results reported in PubChem BioAssay (NCI).
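GI50 = concentration required for 50% inhibition of growth. TGI is the concentration that stops growth completely.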

Experiments:
Assay in all cases: NCI-60 cell line screen, 384-well format
[1] = tested on: SW-620 colon
[2] = tested on: HT29 colon
[3] = tested on: TK-10 renal
[4] = tested on: HCT-15 colon
[5] = tested on: UO-31 renal
[6] = tested on: SK-OV-3 ovarian
[7] = tested on: MDA-MB-468 breast
[8] = tested on: HL-60(TB) leukemia
[9] = tested on: SF-539 CNS
[10] = tested on: BT-549 breast
[11] = tested on: 786-0 renal
[12] = tested on: SR leukemia
[13] = tested on: SK-MEL-5 melanoma
[14] = tested on: NCI-H460 NSCLC
[15] = tested on: HCT-116 colon
[16] = tested on: KM12 colon
[17] = tested on: A498 renal
[18] = tested on: MCF7 breast
[19] = tested on: K-562 leukemia
[20] = tested on: M14 melanoma
[21] = tested on: NCI-H23 lung
[22] = tested on: SK-MEL-2 melanoma
[23] = tested on: SNB-19 CNS
[24] = tested on: COLO 205 colon
[25] = tested on: HOP-92 NSCLC
[26] = tested on: NCI-H322M lung
[27] = tested on: SK-MEL-28 melanoma
[28] = tested on: U251 glioblastoma
[29] = tested on: IGROV1 ovarian
[30] = tested on: LOX IMVI melanoma
[31] = tested on: NCI-H226 lung
[32] = tested on: OVCAR-3 ovarian
[33] = tested on: OVCAR-8 ovarian
[34] = tested on: SN12C renal
[35] = tested on: HCC-2998 colon
[36] = tested on: UACC-62 melanoma
[37] = tested on: A549 NSCLC
[38] = tested on: ACHN renal
[39] = tested on: RXF 393 renal
[40] = tested on: HOP-62 NSCLC
[41] = tested on: NCI/ADR-RES ovarian
[42] = tested on: MOLT-4 leukemia
[43] = tested on: CCRF-CEM leukemia
[44] = tested on: UACC-257 melanoma
[45] = tested on: MDA-MB-435 melanoma
[46] = tested on: DU-145 prostate
[47] = tested on: SF-295 CNS
[48] = tested on: PC-3 prostate
[49] = tested on: OVCAR-5 ovarian
[50] = tested on: OVCAR-4 ovarian
[51] = tested on: SF-268 CNS
[52] = tested on: T-47D breast
[53] = tested on: MDA-MB-231 breast
[54] = tested on: CAKI-1 renal
[55] = tested on: MALME-3M melanoma
[56] = tested on: NCI-H522 lung

With `CN(c1ccc(C#N)c(Cl)c1)C1CCC(NC(=O)c2ccc(N3CCN(C4CN(c5ccc6c(c5)C(=O)N(C5CCC(=O)NC5=O)C6=O)C4)CC3)cc2)CC1` (configuration not stated) the GI50 [1] was greater than 100 µM, the TGI [1] was greater than 100 µM and the GI50 [2] was greater than 100 µM. It also gave a TGI [2] greater than 100 µM, a GI50 [3] greater than 100 µM and a TGI [3] greater than 100 µM. For the same compound, the GI50 [4] was greater than 100 µM, the TGI [4] was greater than 100 µM and the GI50 [5] was greater than 100 µM. It also gave a TGI [5] greater than 100 µM, a GI50 [6] greater than 100 µM and a TGI [6] greater than 100 µM. It also gave a GI50 [7] greater than 100 µM, a TGI [7] greater than 100 µM and a GI50 [8] greater than 100 µM. It also gave a TGI [8] greater than 100 µM, a GI50 [9] greater than 100 µM and a TGI [9] greater than 100 µM. The GI50 [10] was greater than 100 µM, the TGI [10] was greater than 100 µM and the GI50 [11] was greater than 100 µM. The TGI [11] was greater than 100 µM, the GI50 [12] was greater than 100 µM and the TGI [12] was greater than 100 µM. For the same compound, the GI50 [13] was greater than 100 µM, the TGI [13] was greater than 100 µM and the GI50 [14] was greater than 100 µM. The TGI [14] was greater than 100 µM, the GI50 [15] was greater than 100 µM and the TGI [15] was greater than 100 µM. For the same compound, the GI50 [16] was greater than 100 µM, the TGI [16] was greater than 100 µM and the GI50 [17] was greater than 100 µM. For the same compound, the TGI [17] was greater than 100 µM, the GI50 [18] was greater than 100 µM and the TGI [18] was greater than 100 µM. It also gave a GI50 [19] greater than 100 µM, a TGI [19] greater than 100 µM and a GI50 [20] greater than 100 µM. For the same compound, the TGI [20] was greater than 100 µM, the GI50 [21] was greater than 100 µM and the TGI [21] was greater than 100 µM. The GI50 [22] was greater than 100 µM, the TGI [22] was greater than 100 µM and the GI50 [23] was greater than 100 µM. It also gave a TGI [23] greater than 100 µM, a GI50 [24] greater than 100 µM and a TGI [24] greater than 100 µM. It also gave a GI50 [25] greater than 100 µM, a TGI [25] greater than 100 µM and a GI50 [26] greater than 100 µM. It also gave a TGI [26] greater than 100 µM, a GI50 [27] greater than 100 µM and a TGI [27] greater than 100 µM. The GI50 [28] was greater than 100 µM, the TGI [28] was greater than 100 µM and the GI50 [29] was greater than 100 µM. For the same compound, the TGI [29] was greater than 100 µM, the GI50 [30] was greater than 100 µM and the TGI [30] was greater than 100 µM. The GI50 [31] was greater than 100 µM, the TGI [31] was greater than 100 µM and the GI50 [32] was greater than 100 µM. For the same compound, the TGI [32] was greater than 100 µM, the GI50 [33] was greater than 100 µM and the TGI [33] was greater than 100 µM. The GI50 [34] was greater than 100 µM, the TGI [34] was greater than 100 µM and the GI50 [35] was greater than 100 µM. For the same compound, the TGI [35] was greater than 100 µM, the GI50 [36] was greater than 100 µM and the TGI [36] was greater than 100 µM. It also gave a GI50 [37] greater than 100 µM, a TGI [37] greater than 100 µM and a GI50 [38] greater than 100 µM. For the same compound, the TGI [38] was greater than 100 µM, the GI50 [39] was greater than 100 µM and the TGI [39] was greater than 100 µM. For the same compound, the GI50 [40] was greater than 100 µM, the TGI [40] was greater than 100 µM and the GI50 [41] was greater than 100 µM. The TGI [41] was greater than 100 µM, the GI50 [42] was greater than 100 µM and the TGI [42] was greater than 100 µM. The GI50 [43] was greater than 100 µM, the TGI [43] was greater than 100 µM and the GI50 [44] was greater than 100 µM. For the same compound, the TGI [44] was greater than 100 µM, the GI50 [45] was greater than 100 µM and the TGI [45] was greater than 100 µM. For the same compound, the GI50 [46] was greater than 100 µM, the TGI [46] was greater than 100 µM and the GI50 [47] was greater than 100 µM. For the same compound, the TGI [47] was greater than 100 µM, the GI50 [48] was greater than 100 µM and the TGI [48] was greater than 100 µM. It also gave a GI50 [49] greater than 100 µM, a TGI [49] greater than 100 µM and a GI50 [50] greater than 100 µM. For the same compound, the TGI [50] was greater than 100 µM, the GI50 [51] was greater than 100 µM and the TGI [51] was greater than 100 µM. The GI50 [52] was greater than 100 µM, the TGI [52] was greater than 100 µM and the GI50 [53] was greater than 100 µM. The TGI [53] was greater than 100 µM, the GI50 [54] was greater than 100 µM and the TGI [54] was greater than 100 µM. It also gave a GI50 [55] greater than 100 µM, a TGI [55] greater than 100 µM and a GI50 [56] greater than 100 µM. It also gave a TGI [56] greater than 100 µM.
